The source of these data is patent publication US10463651B2, “3-(1H-pyrrolo[3,2-C]pyridin-2-YL)-1H-indazoles and therapeutic uses thereof” (Samumed, LLC, priority 2015, dated 2019).

Each structure is given as a SMILES string.

Holding throughout (assay type): cell-based
Assay [1] concerns primary human mesenchymal stem cells (hMSCs). The experiment in a line: Induction of chondrogenesis in hMSCs (Rhodamine B / Nile Red nodule imaging). The conditions noted are these: for EC50: concentration required to induce 50% levels of chondrogenesis vs TGF-β3 positive control, read-out: Conc (nM) of 50% TGF-β3 activity; for Emax: maximum activity relative to TGF-β3 (10 ng/mL) positive control, read-out: Max. Activity as % TGF-β3 activity. A digest of the protocol:
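Primary hMSCs at passage 3-6 were treated with compound; nodule area per well was normalized to the mean of 3 DMSO wells, averaged over 2-3 replicates, and the concentration giving 50% chondrogenesis relative to TGF-β3 control, plus maximum activity and its dose, was derived.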

The test system of assay [2] is primary human fibroblasts derived from IPF patients (LL29 cells) treated with TGF-β1. Kind of assay: Inhibition of the fibrotic process (αSMA staining) in TGF-β1-treated fibroblasts. The conditions noted are these: Fibroblast, 96 h; for EC50: % αSMA-positive LL29 cells, TGF-β1 20 ng/mL, 4 days. In a few lines: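 LL29 fibroblasts from IPF patients, 1,500 cells/well in F12 with 1% FBS, stimulated with TGF-β1; TGF-β1 plus DMSO wells as controls. Incubation 4 days, then SYTOX green 1 μM final for 30 min at room temperature. Fibrotic response read as αSMA staining.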

In the next assay the test system is IL-6 (THP-1 cells). Kind of assay: IL-6 inhibition in LPS-stimulated THP-1 cells (HTRF). The conditions noted are these: Homo sapiens; for EC50: IL6 by HTRF, THP-1 cells, 500 ng/mL LPS, 22 hours; for inhibition at 10 µM: THP-1, read-out: percent inhibition at 10 M. A digest of the protocol:
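THP-1 cells, pre-cultured 24 h in 1% FBS medium, treated with compound 2 h at 37 °C, then stimulated with 500 ng/mL LPS for 22 h. Secreted IL-6 measured by HTRF as the 665/620 nm ratio. Values normalized to DMSO; EC50 from four-parameter fit, duplicates.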
For orientation: TR-FRET usually uses a lanthanide donor and a delayed reading to cut background.

The subject of assay [3] is Wnt activity (Sp5-Luc reporter, SW480 colon carcinoma cells). Kind of assay: Screening assay for Wnt activity (Sp5-Luc reporter gene assay in SW480 cells). The following applies: Homo sapiens; for EC50: Sp5-Luc reporter, SW480 cells, incubated overnight. In a few lines: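 SW480 colon carcinoma cells stably carrying Sp5 promoter (eight TCF/LEF sites)-driven firefly luciferase, plated at 4,000 cells/well in 1% FBS medium and incubated overnight at 37° C. Luminescence normalised to DMSO-only cells; EC50 from four-parameter variable-slope nonlinear regression.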

For the next assay, the system named is SW480 colon cancer cells. Kind of assay: Cell viability assay (CellTiter-Blue). The following applies: Homo sapiens; for EC50: 96 h, SW480 cell viability, four days, CellTiter-Blue. In a few lines: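 Fluorescence from resazurin reduced to resorufin by metabolically active cells was the read-out, taken after ~3 h with CellTiter-Blue.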

As to `O=C(Cc1ccccc1)Nc1cncc(-c2ccc3[nH]nc(-c4cc5c(N6CCCCC6)nccc5[nH]4)c3c2)c1` [Compound 178, 2-Phenyl-N-(5-(3-(4-(piperidin-1-yl)-1H-pyrrolo[3,2-c]pyridin-2-yl)-1H-indazol-5-yl)pyridin-3-yl)acetamide], the EC50 in assay [1] is 900 nM; in assay [2], 505 nM; with IL-6 (THP-1 cells), 1520 nM; in assay [3], 2350 nM; in the assay on SW480 colon cancer cells, 2870 nM. For the same compound, in assay [1], the Emax stood at 73%.
In general, inhibition refers to the drop in the measured response relative to a control, in per cent. Regarding `CN(C)Cc1cncc(-c2ccc3[nH]nc(-c4cc5c(N6CCCCC6)nccc5[nH]4)c3c2)c1` [Compound 181, N,N-Dimethyl-1-(5-(3-(4-(piperidin-1-yl)-1H-pyrrolo[3,2-c]pyridin-2-yl)-1H-indazol-5-yl)pyridin-3-yl)methanamine], the EC50 in assay [1] is 10 nM; in assay [2], 3320 nM; in the assay on IL-6 (THP-1 cells), more than 10000 nM; in assay [3], 4710 nM; in the assay with SW480 colon cancer cells it was 1940 nM. Also, the Emax in assay [1] stood at 220%. Further, the inhibition at 10 µM with IL-6 (THP-1 cells) was determined as 22.5%.
`c1cc2[nH]c(-c3n[nH]c4ccc(-c5cncc(CN6CCCCC6)c5)cc34)cc2c(N2CCCCC2)n1` [Compound 183, 3-(4-(Piperidin-1-yl)-1H-pyrrolo[3,2-c]pyridin-2-yl)-5-(5-(piperidin-1-ylmethyl)pyridin-3-yl)-1H-indazole]: the Emax in assay [1] stood at 48%. Also, the EC50 in assay [2] came out at 3280 nM; in the assay on IL-6 (THP-1 cells) it was 9310 nM; in assay [3] it was 4210 nM; in the assay on SW480 colon cancer cells, 3810 nM.
As to `CC(C)(C)CC(=O)Nc1cncc(-c2ccc3[nH]nc(-c4cc5c(N6CCCCC6)nccc5[nH]4)c3c2)c1` [Compound 184, 3,3-Dimethyl-N-(5-(3-(4-(piperidin-1-yl)-1H-pyrrolo[3,2-c]pyridin-2-yl)-1H-indazol-5-yl)pyridin-3-yl)butanamide], the EC50 in assay [1] came to 900 nM; in assay [2], 1470 nM; in the assay with IL-6 (THP-1 cells), 8900 nM; in assay [3], 2020 nM; with SW480 colon cancer cells, 1540 nM. Moreover, the Emax in assay [1] came to 79%.
For `O=C(Nc1cncc(-c2ccc3[nH]nc(-c4cc5c(N6CCCCC6)nccc5[nH]4)c3c2)c1)C1CC1` [Compound 188, N-(5-(3-(4-(Piperidin-1-yl)-1H-pyrrolo[3,2-c]pyridin-2-yl)-1H-indazol-5-yl)pyridin-3-yl)cyclopropanecarboxamide], the EC50 in assay [1] was 900 nM; in assay [2] it was 9010 nM; in the assay with IL-6 (THP-1 cells), 381 nM; in assay [3], 1800 nM; in the assay on SW480 colon cancer cells, 972 nM. Moreover, the Emax in assay [1] stood at 146%.
Turning to `O=C(Nc1cncc(-c2ccc3[nH]nc(-c4cc5c(N6CCCCC6)nccc5[nH]4)c3c2)c1)C1CCC1` [Compound 189, N-(5-(3-(4-(Piperidin-1-yl)-1H-pyrrolo[3,2-c]pyridin-2-yl)-1H-indazol-5-yl)pyridin-3-yl)cyclobutanecarboxamide], in assay [1], the Emax was 34%. The EC50 in assay [2] was 337 nM; in the assay with IL-6 (THP-1 cells), 232 nM; in assay [3], 955 nM; in the assay with SW480 colon cancer cells, 906 nM.
For `FC1(F)CCN(Cc2cncc(-c3ccc4[nH]nc(-c5cc6c(N7CCCCC7)nccc6[nH]5)c4c3)c2)C1` [Compound 194, 5-(5-((3,3-difluoropyrrolidin-1-yl)methyl)pyridin-3-yl)-3-(4-(piperidin-1-yl)-1H-pyrrolo[3,2-c]pyridin-2-yl)-1H-indazole] the same measures were 40%, 1000 nM, 257 nM, 2000 nM and 1420 nM.
On to `Cc1ccncc1-c1ccc2[nH]nc(-c3cc4c(N5CCN(C)CC5)nccc4[nH]3)c2c1` [Compound 229, 3-(4-(4-Methylpiperazin-1-yl)-1H-pyrrolo[3,2-c]pyridin-2-yl)-5-(4-methylpyridin-3-yl)-1H-indazole], for which the Emax in assay [1] was 36%. Besides, the EC50 is 2980 nM in assay [2], 1090 nM in the assay with IL-6 (THP-1 cells), 3500 nM in assay [3] and 3680 nM in the assay with SW480 colon cancer cells.
On to `CC(C)C(=O)Nc1cncc(-c2ccc3[nH]nc(-c4cc5c(N6CCN(C)CC6)nccc5[nH]4)c3c2)c1` [Compound 233, N-(5-(3-(4-(4-Methylpiperazin-1-yl)-1H-pyrrolo[3,2-c]pyridin-2-yl)-1H-indazol-5-yl)pyridin-3-yl)isobutyramide], for which the Emax in assay [1] amounted to 21%. In addition, the EC50 in assay [2] was 4720 nM; in the assay on IL-6 (THP-1 cells), 6110 nM; in assay [3] it was 7690 nM; in the assay on SW480 colon cancer cells it was more than 10000 nM. For the same compound, the inhibition at 10 µM in the assay on SW480 colon cancer cells (SW480, 96 h, read-out: percent inhibition at 10 μM) is 38.5%.
`CN1CCN(c2nccc3[nH]c(-c4n[nH]c5ccc(-c6cncc(NC(=O)c7ccccc7)c6)cc45)cc23)CC1` [Compound 235, N-(5-(3-(4-(4-Methylpiperazin-1-yl)-1H-pyrrolo[3,2-c]pyridin-2-yl)-1H-indazol-5-yl)pyridin-3-yl)benzamide]: the Emax in assay [1] came to 35%. The EC50 came out at 1610 nM in assay [2], 754 nM in the assay with IL-6 (THP-1 cells), 2140 nM in assay [3] and 3620 nM in the assay with SW480 colon cancer cells.
Consider `CN1CCN(c2nccc3[nH]c(-c4n[nH]c5ccc(-c6cncc(CN7CCCC7)c6)cc45)cc23)CC1` [Compound 238, 3-(4-(4-Methylpiperazin-1-yl)-1H-pyrrolo[3,2-c]pyridin-2-yl)-5-(5-(pyrrolidin-1-ylmethyl)pyridin-3-yl)-1H-indazole], for which the Emax in assay [1] was found to be 31%. For the same compound, the EC50 is more than 10000 nM in assay [2], more than 10000 nM in the assay with IL-6 (THP-1 cells), 9380 nM in assay [3] and 4190 nM in the assay on SW480 colon cancer cells. Besides, the inhibition at 10 µM in assay [2] (read-out: percent inhibition at 10 μM) was found to be 45.7%; in the assay with IL-6 (THP-1 cells), 40.5%.
`CN1CCN(c2nccc3[nH]c(-c4n[nH]c5ccc(-c6cncc(CN7CCCCC7)c6)cc45)cc23)CC1` [Compound 239, 3-(4-(4-Methylpiperazin-1-yl)-1H-pyrrolo[3,2-c]pyridin-2-yl)-5-(5-(piperidin-1-ylmethyl)pyridin-3-yl)-1H-indazole]: the EC50 is 900 nM in assay [1]; 5120 nM in assay [2]; 8420 nM in the assay on IL-6 (THP-1 cells); more than 10000 nM in assay [3]; 3700 nM with SW480 colon cancer cells. In assay [1], the Emax worked out at 55%. The inhibition at 10 µM in assay [3] (SW480, read-out: percent inhibition at 10 μM) was 51%.
For the compound `CCCCC(=O)Nc1cncc(-c2ccc3[nH]nc(-c4cc5c(N6CCN(C)CC6)nccc5[nH]4)c3c2)c1` [Compound 243, N-(5-(3-(4-(4-Methylpiperazin-1-yl)-1H-pyrrolo[3,2-c]pyridin-2-yl)-1H-indazol-5-yl)pyridin-3-yl)pentanamide], the Emax in assay [1] was 49%. Moreover, the EC50 in assay [2] was 1830 nM; with IL-6 (THP-1 cells), 3170 nM; in assay [3], 3690 nM; in the assay on SW480 colon cancer cells, 3480 nM.
On to `CN1CCN(c2nccc3[nH]c(-c4n[nH]c5ccc(-c6cncc(NC(=O)C7CCCCC7)c6)cc45)cc23)CC1` [Compound 247, N-(5-(3-(4-(4-Methylpiperazin-1-yl)-1H-pyrrolo[3,2-c]pyridin-2-yl)-1H-indazol-5-yl)pyridin-3-yl)cyclohexanecarboxamide], for which the Emax in assay [1] amounted to 38%. Moreover, the EC50 was found to be 3350 nM in assay [2], 8870 nM with IL-6 (THP-1 cells), 5270 nM in assay [3] and 4820 nM in the assay on SW480 colon cancer cells.
With `CCC(=O)Nc1cncc(-c2ccc3[nH]nc(-c4cc5cnccc5[nH]4)c3c2)c1` [Compound 253, N-(5-(3-(1H-Pyrrolo[3,2-c]pyridin-2-yl)-1H-indazol-5-yl)pyridin-3-yl) propionamide], the EC50 amounted to 900 nM in assay [1]; 499 nM in assay [2]; 189 nM in the assay on IL-6 (THP-1 cells); 150 nM in assay [3]; 533 nM in the assay on SW480 colon cancer cells. In addition, in assay [1], the Emax was 259%.
Take `c1cncc(-c2ccc3[nH]nc(-c4cc5cnccc5[nH]4)c3c2)c1` [Compound 256, 5-(Pyridin-3-yl)-3-(1H-pyrrolo[3,2-c]pyridin-2-yl)-1H-indazole]: the EC50 in assay [1] stood at 10 nM; in assay [2], 106 nM; in the assay with IL-6 (THP-1 cells) it was 53 nM; in assay [3] it was 40 nM; in the assay on SW480 colon cancer cells, 68 nM. In addition, the Emax in assay [1] was 341%.
Turning to `CCNCc1cncc(-c2ccc3[nH]nc(-c4cc5cnccc5[nH]4)c3c2)c1` [Compound 258, N-((5-(3-(1H-Pyrrolo[3,2-c]pyridin-2-yl)-1H-indazol-5-yl)pyridin-3-yl)methyl)ethanamine], the EC50 in assay [1] came to 10 nM; in assay [2], 1260 nM; in the assay with IL-6 (THP-1 cells) it was 451 nM; in assay [3], 1040 nM; in the assay on SW480 colon cancer cells, 844 nM. The Emax in assay [1] is 317%.
